Test [1] deals with T1, LRRK2 dimerization (Homo sapiens, UniProt Q5S007).
T1 construct: co-transfecting HEK293 cells with GFP-tagged and strep-tagged full-length LRRK2; expressed in transfected cells; host or cells: HEK293
The experiment in a line: In vitro dimerization assay (co-immunoprecipitation of GFP- and Strep-tagged LRRK2). It is filed as biochemical. The conditions noted are these: 10 μM peptide overnight, HEK293 lysates. As to the method:
In vitro dimerization assay. HEK293 cells were co-transfected using JetPEI reagent (Polyplus transfection) with pcDNA3.1_GFP.LRRK2 and pDEST(N)SF.LRRK2. Cells were cultivated for 48 hours. The cells were then lysed with 200 μL ice-cold lysis buffer (10 mM Tris/HCl pH 7.5; 150 mM NaCl; 0.5 mM EDTA; 0.5% NP-40), complete EDTA-free protease inhibitor cocktail (Sigma-Aldrich Cat #11836170001) and Protease Inhibitor Cocktail, Sigma (cat. no. P-2714). The mixture was incubated and rotated on ice for 30 minutes with extensively pipetting every 10 minutes. Lysate was cleared by centrifugation for 10 min at 14000 g for 10 min at 4° C. The supernatant was transferred to a precooled tube and 300 μL dilution buffer (same as lysis buffer without NP-40) was added to the lysate. Peptides were added to a final concentration of 10 μM and the mixture was allowed to rotate at 4° C. overnight. GFP-LRRK2 was immunoprecipitated with Magnetic GFP nanotrap beads (ChromoTek). […] The membranes were coated with enhanced chemiluminescent (ECL) reagent (WesternSure PREMIUM, Li-COR biosciences), and proteins were detected by C-Digit Imaging System (Li-COR Biosciences).
To determine whether LCIP1 and LRIP4 could effectively disrupt LRRK2 dimerization, we monitored disruption of dimerization using two different tagged versions of LRRK2. […]

The test system of test [2] is LRRK2 dimers (WT/WT, WT/G2019S, G2019S/G2019S). Kind of test: Proximity biotinylation ELISA-based LRRK2 dimerization assay in cells. It is filed as cell-based. The conditions noted are these: for LRRK2 dimerization in cells (FIG. 8): 0.1, 1 and 10 μM fluorescently labeled peptide; for LRRK2 dimerization, wild-type homodimers and wild-type/G2019S heterodimers: HEK293 cells. The source says: Proximity biotinylation of LRRK2. To purify LRRK2 dimers, we relied on the proximity biotinylation technique recently described (E. Leandrou et al., Kinase activity of mutant LRRK2 manifests differently in hetero-dimeric vs. homo-dimeric complexes. Biochem J 476, 559-579 (2019); and M. Fernandez-Suarez, T. S. Chen, A. Y. Ting, Protein-protein interaction detection in vitro and in cells by proximity biotinylation. J Am Chem Soc 130, 9251-9253 (2008)). Briefly, two cDNAs were created encoding LRRK2 fusions with biotin ligase (BirA; N-term, Flag-tagged) and an acceptor peptide (AP, N-term; c-Myc tagged), and over-expressed in HEK293T cells grown in biotin-depleted medium (OptiMEM+2% FBS). The following day, the cells were treated with the indicated concentrations of the stapled peptides: LRIP4 and LCIP1. Stock peptides, fluorescently tagged, were diluted in serum-free medium, and added every 24 hours after transfection. After 48 hours following initiation of treatment (i.e. 72 hr of total expression), the cells were extensively washed in PBS, given a brief biotin pulse (50 μM, 5 min, 37° C.), followed by another 3× washes in PBS, centrifuged and the pellet snap frozen in a dry-ice/MeOH bath. Following lysis, extracts were diluted in TBST/BSA (10 mM Tris HCl, pH 7.6; 100 mM NaCl; 0.1% Triton X-100; 1% BSA) and 2.5 μg of protein loaded in parallel ELISA plates, coated with streptavidin (SA; to capture biotinylated LRRK2 dimers) and anti-LRRK2 (to quantify LRRK2 over-expression). To detect and quantify dimeric LRRK2, SA-coated plates were incubated with HRP-conjugated anti-Flag antibodies (1 hour, room temperature). Since the biotin tag is only present on AP-LRRK2 fusions, and the flag epitope tag is located on the BirA-LRRK2 fusion, by using HRP-Flag as our detector reagent, we are specifically labeling dimeric LRRK2 present in the ELISA plates. On the parallel anti-LRRK2 coated plates (clone c41-2), total over-expressed LRRK2 was quantified using HRP-LRRK2 antibodies (clone N241) and used to normalize the relative amounts of dimeric LRRK2. The following LRRK2 dimers were assessed: WT/WT homodimers, WT/G2019S, and G2019S/G2019S homodimers.
In this assay, HEK293T cells expressing either wild-type or G2019S mutants of LRRK2 fusions, either with the biotin ligase BirA or the acceptor peptide AP, were treated with increasing concentrations (0.1, 1, and 10 μM) of each fluorescently labeled peptide.
Background: ELISA stands for enzyme-linked immunosorbent assay.

Entries after “also recorded” stand apart in the source; their conditions may differ.

Sequence of LRRK2 dimers (WT/WT, WT/G2019S, G2019S/G2019S) (Q5S007 1328-1878 limits assumed, stated change not applied): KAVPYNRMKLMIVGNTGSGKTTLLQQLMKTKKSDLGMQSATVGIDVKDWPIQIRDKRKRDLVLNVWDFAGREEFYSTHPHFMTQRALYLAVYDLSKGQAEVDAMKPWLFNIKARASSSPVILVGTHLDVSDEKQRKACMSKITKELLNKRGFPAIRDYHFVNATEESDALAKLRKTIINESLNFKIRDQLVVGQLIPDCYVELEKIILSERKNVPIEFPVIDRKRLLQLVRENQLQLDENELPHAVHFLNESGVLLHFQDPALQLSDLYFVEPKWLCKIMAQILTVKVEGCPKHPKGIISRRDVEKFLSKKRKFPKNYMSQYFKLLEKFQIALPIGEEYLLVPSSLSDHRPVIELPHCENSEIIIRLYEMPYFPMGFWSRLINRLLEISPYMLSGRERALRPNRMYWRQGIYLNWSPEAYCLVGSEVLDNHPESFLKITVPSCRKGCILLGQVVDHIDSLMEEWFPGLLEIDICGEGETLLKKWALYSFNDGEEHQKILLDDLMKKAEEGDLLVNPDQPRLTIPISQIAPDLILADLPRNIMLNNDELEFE
T1 sequence (Q5S007 whole entry): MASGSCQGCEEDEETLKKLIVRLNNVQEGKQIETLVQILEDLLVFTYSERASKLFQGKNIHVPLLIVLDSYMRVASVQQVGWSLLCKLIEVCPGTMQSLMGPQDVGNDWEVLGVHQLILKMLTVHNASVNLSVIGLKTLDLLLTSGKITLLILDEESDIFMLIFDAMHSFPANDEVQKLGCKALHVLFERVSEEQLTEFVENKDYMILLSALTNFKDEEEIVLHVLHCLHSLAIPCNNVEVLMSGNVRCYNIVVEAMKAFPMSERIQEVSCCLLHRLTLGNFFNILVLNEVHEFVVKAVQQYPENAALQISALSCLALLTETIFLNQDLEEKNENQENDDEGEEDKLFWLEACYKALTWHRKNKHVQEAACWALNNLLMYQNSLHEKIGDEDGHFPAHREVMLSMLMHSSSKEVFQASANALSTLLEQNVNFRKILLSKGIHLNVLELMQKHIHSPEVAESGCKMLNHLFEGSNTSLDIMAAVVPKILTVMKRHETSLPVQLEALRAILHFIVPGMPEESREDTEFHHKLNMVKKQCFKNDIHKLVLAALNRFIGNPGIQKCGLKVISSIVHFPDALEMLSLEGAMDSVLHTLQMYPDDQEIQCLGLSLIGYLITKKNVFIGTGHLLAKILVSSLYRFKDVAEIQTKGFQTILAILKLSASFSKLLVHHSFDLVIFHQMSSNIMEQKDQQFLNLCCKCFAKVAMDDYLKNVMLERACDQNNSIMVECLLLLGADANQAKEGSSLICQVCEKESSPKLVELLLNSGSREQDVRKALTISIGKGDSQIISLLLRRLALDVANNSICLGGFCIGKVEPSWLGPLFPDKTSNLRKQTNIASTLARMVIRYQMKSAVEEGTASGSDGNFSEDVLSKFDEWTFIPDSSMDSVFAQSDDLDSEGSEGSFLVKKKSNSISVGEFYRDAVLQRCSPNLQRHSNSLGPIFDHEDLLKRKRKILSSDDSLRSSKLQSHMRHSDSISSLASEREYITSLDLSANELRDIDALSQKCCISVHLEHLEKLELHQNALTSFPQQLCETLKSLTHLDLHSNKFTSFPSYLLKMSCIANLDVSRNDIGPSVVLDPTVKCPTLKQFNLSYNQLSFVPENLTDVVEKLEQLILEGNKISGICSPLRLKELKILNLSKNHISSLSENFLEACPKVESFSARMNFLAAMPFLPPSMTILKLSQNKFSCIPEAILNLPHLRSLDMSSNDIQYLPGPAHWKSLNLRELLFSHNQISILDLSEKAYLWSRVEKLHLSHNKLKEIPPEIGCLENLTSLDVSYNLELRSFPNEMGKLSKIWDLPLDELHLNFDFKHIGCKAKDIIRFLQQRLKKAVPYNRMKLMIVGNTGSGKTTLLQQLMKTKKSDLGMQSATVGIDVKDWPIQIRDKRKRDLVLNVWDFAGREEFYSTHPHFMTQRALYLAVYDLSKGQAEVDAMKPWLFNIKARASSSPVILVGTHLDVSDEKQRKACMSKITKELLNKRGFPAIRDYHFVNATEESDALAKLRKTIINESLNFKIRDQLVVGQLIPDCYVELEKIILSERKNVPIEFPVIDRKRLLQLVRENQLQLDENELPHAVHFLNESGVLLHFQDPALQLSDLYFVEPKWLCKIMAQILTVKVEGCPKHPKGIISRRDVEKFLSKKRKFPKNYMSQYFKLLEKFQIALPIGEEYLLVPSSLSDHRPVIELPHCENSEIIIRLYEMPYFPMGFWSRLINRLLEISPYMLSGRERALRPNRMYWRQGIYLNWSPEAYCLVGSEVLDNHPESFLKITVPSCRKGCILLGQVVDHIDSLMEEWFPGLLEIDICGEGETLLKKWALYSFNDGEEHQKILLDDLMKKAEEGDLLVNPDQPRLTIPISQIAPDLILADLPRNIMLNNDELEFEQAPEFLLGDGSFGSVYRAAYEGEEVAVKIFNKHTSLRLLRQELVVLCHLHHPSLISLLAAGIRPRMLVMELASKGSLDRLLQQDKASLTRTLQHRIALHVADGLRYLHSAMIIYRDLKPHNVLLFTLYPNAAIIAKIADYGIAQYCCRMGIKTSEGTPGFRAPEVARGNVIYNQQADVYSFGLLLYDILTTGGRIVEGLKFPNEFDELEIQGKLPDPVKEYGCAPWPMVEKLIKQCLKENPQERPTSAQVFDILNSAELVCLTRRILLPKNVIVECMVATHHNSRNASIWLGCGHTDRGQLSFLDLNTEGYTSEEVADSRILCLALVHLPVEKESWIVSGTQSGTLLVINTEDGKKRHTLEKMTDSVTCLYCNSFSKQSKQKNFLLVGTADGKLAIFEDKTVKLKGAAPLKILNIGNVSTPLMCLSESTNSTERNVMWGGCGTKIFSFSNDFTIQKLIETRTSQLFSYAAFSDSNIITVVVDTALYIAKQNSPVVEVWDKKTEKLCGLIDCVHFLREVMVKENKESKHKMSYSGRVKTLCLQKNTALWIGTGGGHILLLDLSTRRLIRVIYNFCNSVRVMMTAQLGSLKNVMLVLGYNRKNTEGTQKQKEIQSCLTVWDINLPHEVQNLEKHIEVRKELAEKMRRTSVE

As for “COR-domain stapled peptide formed from SEQ ID NO. 16 KGEGEXLLKXWK, X = (S)-2-(4′-pentenyl)alanine; PEG3 linker, FAM or biotin label (hydrocarbon staple; PEG3 linker; FAM or biotin; COR domain peptide; (6)..(6) Xaa is (S)-2-(4′-pentenyl)alanine; (10)..(10) Xaa is (S)-2-(4′-pentenyl)alanine) [LCIP1]”, the “LRRK2 dimerization (Strep-LRRK2 co-precipitated with GFP-LRRK2)” value in test [1] is given as “reduced the co-immunoprecipitation of the two LRRK2 proteins; also recorded: able to disrupt LRRK2 dimerization; also recorded: reduced dimerization; also recorded: inhibitory effect on LRRK2”. In addition, in test [2], the “LRRK2 dimerization in cells (FIG. 8)” value is recorded as “failed to consistently lead to a reduction in LRRK2 dimerization; also recorded: no statistically significant effect on dimerization”; the “LRRK2 dimerization, wild-type homodimers and wild-type/G2019S heterodimers” value is reported as “no statistically significant effects on dimerization”.
As to “Roc-domain stapled peptide formed from SEQ ID NO. 6 DEKQRKAC(Nle)SKITKEXLNKX, X = (S)-2-(4′-pentenyl)alanine; PEG3 linker, FAM or biotin label (DEKQRKACXSKITKEXLNKX; hydrocarbon staple; Nle; PEG3 linker; FAM or biotin; ROC domain petide; (9)..(9) Xaa is norleucine; (16)..(16) Xaa is (S)-2-(4′-pentenyl)alanine; (20)..(20) Xaa is (S)-2-(4′-pentenyl)alanine) [LRIP4]”, the “LRRK2 dimerization (Strep-LRRK2 co-precipitated with GFP-LRRK2)” value in test [1] was “reduced the co-immunoprecipitation of the two LRRK2 proteins; also recorded: able to disrupt LRRK2 dimerization with LRIP4 having the most pronounced effect; also recorded: reduced dimerization; also recorded: inhibitory effect on LRRK2”. Also, in test [2], the “LRRK2 dimerization in cells (FIG. 8)” value is “effectively disrupts LRRK2 dimerization in cells”; the “LRRK2 dimerization, wild-type homodimers and wild-type/G2019S heterodimers” value was “inhibit dimerization of both wild-type LRRK2 homodimers and wild-type/G2019S LRRK2 heterodimers”. Moreover, the “LRRK2 dimerization, G2019S/G2019S homodimers and G2019S/wild-type heterodimers” value in test [2] (HEK293(T) cells, 10 mM peptide as printed) was “statistically significant reduction in both G2019S/G2019S and G2019S/wild-type LRRK2 dimers; also recorded: inhibit dimerization of both wild-type/G2019S LRRK2 heterodimers or G2019S LRRK2 homodimers”.
